How the values were obtained:
interferon = conditions: rodents and cats; administered orally or intraperitoneally; cited from earlier work
renal papillae of rats = conditions: cited from earlier work
[1] = tested on: vesicular stomatitis virus (VSV); type: cell-based

## Cc1nc(N)nc(O)c1Br [Compound 6, 2-amino-5-bromo-6-methyl-4(3H)-pyrimidinone]
interferon
  Interferon induction: reported to induce interferon
Renal papillae of rats
  Toxicity upon chronic administration: toxicity-limiting crystal deposition in the renal papillae of rats

## CCCCCc1nc(N)[nH]c(=O)c1Br [Compound 14c, 2-Amino-5-bromo-6-pentylpyrimidin-4(3H)-one]
[1]
  EC50 vesicular stomatitis virus: anti-VSV activity was not observed in HEL cell cultures

Source: publication PMC7127258 (European Journal of Medicinal Chemistry, 2013)
